Measured values taken from patent US20200375929A1, “METHODS AND COMPOSITIONS FOR THE TREATMENT OF DISEASES ASSOCIATED WITH CANCER, INFLAMMATION, OR IMMUNE RESPONSE” (Washington University, priority 2017, published 2020).
“Also recorded” adds a separate entry of the source.

Columns and labels:
[1] = test system: IκBζ target genes (Defb4, S100a7a, Lcn2, S100a9); assay: IκBζ target gene expression in IL-17A-stimulated human keratinocytes (qPCR); format: cell-based; settings: DI 12 h
Experimental: RNA from cultured cells was isolated using a Total RNA I kit (OMEGA). RNA from mouse ear skin was extracted using RNAeasy mini kit (Qiagen) after tissue disruption with sterile zirconium beads on a MagNA Lyser (Roche). Isolated RNA was reverse transcribed using AffinityScript Multi-Temp reverse transcriptase (Agilent Technologies) according to the manufacturer's protocol. Reactions were performed in 96-well plates using a SYBR Green PCR Master mix (Thermo Fisher Scientific) using a LightCycler® 96 or LightCycler® 480 (Roche Diagnostics). All assays were performed at least in duplicates, and reaction mixtures in 20 μL volumes (96-plate) or 10 μL volumes (384-plate) were processed under the following cycling conditions: initial 10 min denaturation at 95° C., followed by 40 cycles at 95° C. for 10 s, 60° C. for 1 min. Threshold cycle (CT) values for each sample were determined by automated threshold analysis. Expression levels of all mRNAs were normalized to reference gene Actb in BMDMs or to Rpl19 in mouse keratinocytes and tissue samples; to ACTB in human blood monocytes or RPLP0 in human keratinocytes. The relative increase in the expression level of a gene was normalized to the level of expression in unstimulated control cells in each experiment. IκBζ-dependent genes selected for analysis in macrophages were previously published. […]

[2] = test system: IκBζ; assay: LPS-induced Ikb-ζ protein induction in BMDMs (western blot); format: cell-based, mouse
Experimental: BMDM were prepared from 6- to 12-week-old mice as described 1 and cultured in RMPI-1640 medium supplemented with 10% fetal bovine serum (FBS), 2 mM L-glutamine, and 100 U/mL penicillin-streptomycin and mouse recombinant M-CSF ([…], Peprotech). For experiments, cells were seeded at concentration 10^6 cells/mL in tissue culture plates of various formats. The cells were treated with DI (250 μM (unless stated otherwise), cat #592498, Sigma), DMF (50 μM (unless stated otherwise), cat #242926, Sigma), 3-(ethoxycarbonyl)but-3-enoic acid (3MI, 5 μM, Aris Pharmaceuticals Inc.), 4-ethoxy-2-methylene-4-oxobutanoic acid (MI, Aris Pharmaceuticals Inc.) for 12 h and activated with lipopolysaccharide (LPS; 100 ng/mL; E. coli 0111:B4, Sigma) for 1 h or as indicated. In some experiments cells were stimulated with combination of LPS (20 ng/mL) and IFN-γ (50 ng/mL; Peprotech). In some experiments cells were treated with α-tocopherol (AT, 10 μM; Sigma), MitoTEMPO (MT, 500 μM; Sigma), N-acetylcysteine (NAC, 1 mM, Sigma), ethylester of GSH (EtGSH; 1 mM, Santa Cruz) or buthionene sulfoximine (BSO, 500 μM, Sigma) alone or in combination with DI for 12 h. In some experiments BMDMs were treated with DI for 12 h and bafilomycin A (BafA, 100 nM, Sigma) or MG132 (10 μM, Selleckchem) were added 30 min before subsequent LPS stimulation.
Cells were lysed in RIPA Lysis Buffer System (Santa Cruz) and heat-denatured at 95° C. for 5 min in reducing sample buffer (BioRad). Proteins were separated on 4%-20% polyacrylamide gradient gels (BioRad) and transferred onto 0.45 μm pore size PVDF membranes (Millipore). Non-specific binding was blocked with 5% skim milk (or 5% BSA when phospho-proteins were analyzed), and membranes were probed with primary antibodies specific to Nrf2 (#12721), HO-1 (#70081), IκBζ (mouse specific, #93726), IκBζ(#9244), ATF3 (#D2Y5W), IRAK1 (#4504; sensitivity of IRAK1 detection diminishes upon IRAK1 K63 ubiquitination), phospho-IKK (Ser176/180, #2697), p62/SQSTM1 (#5114), phospho-eIF2α (Ser51, #9721), eIF2α (#5324) from Cell Signaling; GAPDH (sc-25778), IκBα (sc-1643), ATF3 (sc-188), SDHA (sc-166909) from Santa Cruz; NQO1 (ab28947) from Abeam, followed by incubation with anti-rabbit-HRP (1:10,000; sc-2030) or anti-mouse-HRP (1:10,000; sc-2031) from Santa Cruz and Clarity western ECL substrate (Bio-Rad). Membranes were exposed to X-Ray films (Research Products International Corp.) and developed using SRX-101A film processor (Konica Minolta). GAPDH run on the same blot was used as loading control. After scanning of original films image brightness of some blots was adjusted and bands were cropped using ImageJ. Densitometry was performed using ImageJ.

[3] = test system: human primary keratinocytes; assay: Viability of primary keratinocytes (propidium iodide, flow cytometry); format: cell-based; settings: DI 12 h
Experimental: For ROS measurements, cells were treated with DI (250 μM), loaded with 10 μM CM-H2DCFDA (Invitrogen) at RT for 30 min in Hank's balanced salt solution (HBSS). After incubation, cell were rinsed with warm HBSS, harvested and directly analyzed. Mean fluorescent intensity (MFI) of living cells is shown. For Nfkbiz 3′UTR reporter analysis GFP signal was determined in live cells. For analysis of cell viability cells were stained with propidium iodide (1 μg/mL) and percentage of negative cells was plotted. Cells were acquired on CantoII or LSRII flow cytometers (Becton Dickinson), and data were analyzed with FlowJo v.9.5.2 software (Tree Star). For gating strategy see e.g., FIG. 25.
Primary keratinocytes were isolated from C57BL/6 WT newborn mice or human foreskins as previously described. 2×10^5 cells in 1 ml of KFSM media (Gibco cat #10725-018) [Ca2+ at 0.05 mM (mouse) and 0.09 mM (human)] were plated in 12-well tissue culture plates. After 2-3 days of cultivation, mouse or human cells were treated with DI for 12 hours and then stimulated with mouse recombinant IL-17A (100 ng/mL; cat #421-ML, R&D Systems) or human recombinant IL-17A (100 ng/mL; cat #7955-IL, R&D Systems) for 4 h or as indicated.

[4] = test system: eIF2α; assay: eIF2α phosphorylation in BMDMs (western blot); format: cell-based, mouse; settings: DI
Experimental: BMDM were prepared from 6- to 12-week-old mice as described 1 and cultured in RMPI-1640 medium supplemented with 10% fetal bovine serum (FBS), 2 mM L-glutamine, and 100 U/mL penicillin-streptomycin and mouse recombinant M-CSF ([…], Peprotech). For experiments, cells were seeded at concentration 10^6 cells/mL in tissue culture plates of various formats. […]
Cells were lysed in RIPA Lysis Buffer System (Santa Cruz) and heat-denatured at 95° C. for 5 min in reducing sample buffer (BioRad). […] Non-specific binding was blocked with 5% skim milk (or 5% BSA when phospho-proteins were analyzed), and membranes were probed with primary antibodies specific to Nrf2 (#12721), HO-1 (#70081), IκBζ (mouse specific, #93726), IκBζ(#9244), ATF3 (#D2Y5W), IRAK1 (#4504; sensitivity of IRAK1 detection diminishes upon IRAK1 K63 ubiquitination), phospho-IKK (Ser176/180, #2697), p62/SQSTM1 (#5114), phospho-eIF2α (Ser51, #9721), eIF2α (#5324) from Cell Signaling; GAPDH (sc-25778), IκBα (sc-1643), ATF3 (sc-188), SDHA (sc-166909) from Santa Cruz; NQO1 (ab28947) from Abeam, followed by incubation with anti-rabbit-HRP (1:10,000; sc-2030) or anti-mouse-HRP (1:10,000; sc-2031) from Santa Cruz and Clarity western ECL substrate (Bio-Rad). […]

[5] = test system: IκBζ; assay: IL-17A-induced IκBζ in primary human keratinocytes (western blot); format: cell-based; settings: DI 12 h, IL-17A 100 ng/ml
Experimental: Cells were lysed in RIPA Lysis Buffer System (Santa Cruz) and heat-denatured at 95° C. for 5 min in reducing sample buffer (BioRad). Proteins were separated on 4%-20% polyacrylamide gradient gels (BioRad) and transferred onto 0.45 μm pore size PVDF membranes (Millipore). Non-specific binding was blocked with 5% skim milk (or 5% BSA when phospho-proteins were analyzed), and membranes were probed with primary antibodies specific to Nrf2 (#12721), HO-1 (#70081), IκBζ (mouse specific, #93726), IκBζ(#9244), ATF3 (#D2Y5W), IRAK1 (#4504; sensitivity of IRAK1 detection diminishes upon IRAK1 K63 ubiquitination), phospho-IKK (Ser176/180, #2697), p62/SQSTM1 (#5114), phospho-eIF2α (Ser51, #9721), eIF2α (#5324) from Cell Signaling; GAPDH (sc-25778), IκBα (sc-1643), ATF3 (sc-188), SDHA (sc-166909) from Santa Cruz; NQO1 (ab28947) from Abeam, followed by incubation with anti-rabbit-HRP (1:10,000; sc-2030) or anti-mouse-HRP (1:10,000; sc-2031) from Santa Cruz and Clarity western ECL substrate (Bio-Rad). Membranes were exposed to X-Ray films (Research Products International Corp.) and developed using SRX-101A film processor (Konica Minolta). GAPDH run on the same blot was used as loading control. After scanning of original films image brightness of some blots was adjusted and bands were cropped using ImageJ. Densitometry was performed using ImageJ. […]

Compound: C=C(CC(=O)OC)C(=O)OC [DI, dimethyl itaconate]
- expression of IL-17A signature / IκBζ target genes [1]: also inhibited; also recorded: downregulated
- IκBζ protein levels upon DI treatment in Atf3−/− cells ([2]; Atf3−/− BMDMs, DI, LPS): restored IκBζ protein levels
- LPS-induced Ikb-ζ induction, protein level ([2]; BMDMs treated with compound 12 h, then LPS 100 ng/ml): almost complete inhibition; also recorded: completely abolished; also recorded: inhibited IκBζ induction
- effect on IκBζ/IL-6 in combination with BSO ([2]; BMDMs, compound plus BSO 500 μM, LPS): enhanced the inhibitory effect
- DI inhibition of Ikb-ζ induction in Nrf2-deficient cells ([2]; Nrf2 KO BMDMs, DI 250 μM 12 h, LPS): did not affect inhibition of Ikb-ζ induction; also recorded: did not alleviate
- IκBζ inhibition by DI in p62/SQSTM1- or HO-1-lacking macrophages ([2]; macrophages genetically lacking p62/SQSTM1 or HO-1): did not rescue IκBζ inhibition by DI
- viability of primary keratinocytes [3]: not affected
- eIF2α phosphorylation in Atf3−/− macrophages ([4]; Atf3−/− macrophages): failed to increase eIF2α phosphorylation
- eIF2α phosphorylation ([4]; WT macrophages): marked increase
- IL-17-induced IκBζ induction [5]: inhibited
